Source: publication PMC9571063 (Molecules, 2022)
pIC50: −log10 of the molar value. Where a name gives a salt, the structure may show the parent alone. Read-outs that look alike come from different tables or passages of the source.

How the values were obtained:
[1] = cytotoxic assay, nuclei count (Hoechst, HCS); format: cell-based; settings: human, HuH7 cells (hepatocellular carcinoma); 48 h treatment; read-out: Cytotoxic studies IC50 HuH7
MmCLK1 = biological target: T1, MmCLK1 (Mus musculus, UniProt P22518); experiment: ADP-Glo kinase assay; format: biochemical; settings: for remaining activity at 1 µM / remaining activity at 10 µM: n=2, read-out: % of residual activity Mm_CLK1; for pIC50: mouse CLK1 orthologue, read-out: IC50 MmCLK1
T1 construct: host or cells: bacteria
T1 sequence (P22518 whole entry): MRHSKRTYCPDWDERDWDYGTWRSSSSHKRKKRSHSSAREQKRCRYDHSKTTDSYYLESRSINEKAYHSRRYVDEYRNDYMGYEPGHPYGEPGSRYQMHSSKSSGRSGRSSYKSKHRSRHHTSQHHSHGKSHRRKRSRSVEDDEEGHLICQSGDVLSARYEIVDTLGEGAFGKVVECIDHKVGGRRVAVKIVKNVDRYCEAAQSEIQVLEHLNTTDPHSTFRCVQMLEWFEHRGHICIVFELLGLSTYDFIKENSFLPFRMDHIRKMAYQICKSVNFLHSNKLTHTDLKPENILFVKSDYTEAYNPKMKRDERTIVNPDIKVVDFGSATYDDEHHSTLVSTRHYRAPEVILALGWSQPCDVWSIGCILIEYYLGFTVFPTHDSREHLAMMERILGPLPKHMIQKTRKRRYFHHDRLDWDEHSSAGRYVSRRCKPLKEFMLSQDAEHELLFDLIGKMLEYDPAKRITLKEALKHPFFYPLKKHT

Hs_CDK9/CyclinT = biological target: T2, Hs_CDK9/CyclinT (Homo sapiens, UniProt P50750); experiment: ADP-Glo kinase assay, primary screen; format: biochemical; settings: n=2, read-out: % of residual activity Hs_CDK9/CyclinT
T2 construct: host or cells: Sf9 insect cells (baculovirus)
T2 sequence (P50750 whole entry): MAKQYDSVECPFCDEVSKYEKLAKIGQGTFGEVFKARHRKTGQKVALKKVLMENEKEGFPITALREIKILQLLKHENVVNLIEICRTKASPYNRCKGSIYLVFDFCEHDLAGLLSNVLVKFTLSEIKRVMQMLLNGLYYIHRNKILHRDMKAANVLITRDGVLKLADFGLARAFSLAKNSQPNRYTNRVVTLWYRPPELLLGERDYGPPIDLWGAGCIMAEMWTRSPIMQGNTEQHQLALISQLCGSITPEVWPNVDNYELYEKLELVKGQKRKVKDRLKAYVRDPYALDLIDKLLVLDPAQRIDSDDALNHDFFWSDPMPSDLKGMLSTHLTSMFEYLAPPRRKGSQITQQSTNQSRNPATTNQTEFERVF
T2 sequence (O60563 whole entry partner): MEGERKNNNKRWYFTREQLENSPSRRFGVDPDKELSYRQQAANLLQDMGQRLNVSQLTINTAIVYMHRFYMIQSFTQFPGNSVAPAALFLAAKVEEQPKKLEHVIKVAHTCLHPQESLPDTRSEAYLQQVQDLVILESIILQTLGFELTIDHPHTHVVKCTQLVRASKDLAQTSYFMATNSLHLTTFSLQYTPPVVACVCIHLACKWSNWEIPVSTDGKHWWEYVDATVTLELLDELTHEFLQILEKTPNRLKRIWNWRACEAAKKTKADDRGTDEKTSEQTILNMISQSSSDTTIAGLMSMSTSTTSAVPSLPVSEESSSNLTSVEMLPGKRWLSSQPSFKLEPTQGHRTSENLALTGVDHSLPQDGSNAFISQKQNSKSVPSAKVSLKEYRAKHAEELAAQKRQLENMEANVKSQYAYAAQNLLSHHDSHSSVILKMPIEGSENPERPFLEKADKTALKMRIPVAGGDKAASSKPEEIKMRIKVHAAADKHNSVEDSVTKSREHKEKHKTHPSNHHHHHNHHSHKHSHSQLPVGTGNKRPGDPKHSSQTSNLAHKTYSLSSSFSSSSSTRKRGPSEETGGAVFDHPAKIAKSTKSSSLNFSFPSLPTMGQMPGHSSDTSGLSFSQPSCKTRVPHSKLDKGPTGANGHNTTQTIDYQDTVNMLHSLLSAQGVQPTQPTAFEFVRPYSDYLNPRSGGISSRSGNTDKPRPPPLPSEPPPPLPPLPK

[2] = cytotoxic assay, nuclei count (Hoechst, HCS); format: cell-based; settings: human, MCF7 cells (breast carcinoma); 48 h treatment; read-out: Cytotoxic studies IC50 MCF7
Protocol: (§1) To complete our study, we performed a cytotoxicity screening of the 15 molecules, investigating 7 representative cancer cell lines. The compound’s effect on cell viability was evaluated on Huh-7 (hepatocellular carcinoma), CaCo2, HCT-116 (colorectal adenocarcinoma), MCF7, MDA-MB231, MDA-MB468 (breast carcinoma), PC3 (prostate carcinoma) and NCI-H727 (lung carcinoid). Human skin fibroblasts were used as reference for non-cancerous cells. Roscovitine, Doxorubicin and Taxol were used as positive controls. The cells were treated for 48 h with 25 µM compounds and fixed in cooled 90% ethanol/5% acetic acid for 20 min. The nuclei were stained with Hoechst 33342 and counted using HCS technology.
(§2) HuH7, CaCo-2, MDA-MB-231, HCT116, PC3, MCF7 and NCI-H727 cancer cell lines were obtained from the ECACC collection (Porton Down, UK). Cells were grown at 37 °C, 5% CO2 in ECACC recommended media: DMEM for HuH7, MDA-MB-231 and fibroblast, EMEM for MCF7and CaCo-2, McCoy’s for HCT116 and RPMI for PC3 and NCI-H727. All culture media were supplemented with 10% of FBS, 1% of penicillin-streptomycin and 2 mM glutamine.
(§3) Chemicals were solubilized in DMSO at a concentration of 10 mM (stock solution) and diluted in culture medium to the desired final concentrations.
(§4) The cytotoxic assay of chemical was performed at 25 µM. Cells were plated in 96 wells plates (4000 cells/well). Twenty-four hours after seeding, cells were exposed to chemicals. After 48 h of treatment, cells were washed in PBS and fixed in cooled 90% ethanol/5% acetic acid for 20 min and the nuclei were stained with Hoechst 33342 (B2261 Sigma). Image acquisition and analysis were performed using a CellomicsArrayScan VTI/HCS Reader (ThermoScientific, Waltham, MA, USA). The survival percentages were calculated as the percentage of cell number after compound treatment over cell number after DMSO treatment.

Rn_DYRK1A = biological target: T3, Rn_DYRK1A (Rattus norvegicus, UniProt Q63470); experiment: ADP-Glo kinase assay, primary screen; format: biochemical; settings: n=2, read-out: % of residual activity Rn_DYRK1A
T3 construct: host or cells: bacteria

Hs_GSK3β = biological target: T4, Hs_GSK3β (Homo sapiens, UniProt P49841); experiment: ADP-Glo kinase assay, primary screen; format: biochemical; settings: n=2, read-out: % of residual activity Hs_GSK3β
T4 construct: host or cells: Sf9 insect cells (baculovirus)
T4 sequence (P49841 whole entry): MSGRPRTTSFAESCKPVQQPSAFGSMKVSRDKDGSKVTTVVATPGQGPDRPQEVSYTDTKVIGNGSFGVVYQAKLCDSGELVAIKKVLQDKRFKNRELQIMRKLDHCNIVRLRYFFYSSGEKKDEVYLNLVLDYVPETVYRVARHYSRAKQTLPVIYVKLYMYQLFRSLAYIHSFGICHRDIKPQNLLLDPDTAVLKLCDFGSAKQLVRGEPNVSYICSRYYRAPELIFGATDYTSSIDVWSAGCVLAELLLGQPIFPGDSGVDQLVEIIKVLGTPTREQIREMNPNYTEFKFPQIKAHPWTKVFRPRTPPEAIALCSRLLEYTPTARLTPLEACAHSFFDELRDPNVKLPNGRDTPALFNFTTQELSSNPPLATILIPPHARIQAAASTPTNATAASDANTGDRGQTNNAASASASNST

Hs_CDK5/p25 = biological target: T5, Hs_CDK5/p25 (Homo sapiens, UniProt Q00535); experiment: ADP-Glo kinase assay, primary screen; format: biochemical; settings: n=2, read-out: % of residual activity Hs_CDK5/p25
T5 construct: host or cells: bacteria
T5 sequence (Q00535 whole entry): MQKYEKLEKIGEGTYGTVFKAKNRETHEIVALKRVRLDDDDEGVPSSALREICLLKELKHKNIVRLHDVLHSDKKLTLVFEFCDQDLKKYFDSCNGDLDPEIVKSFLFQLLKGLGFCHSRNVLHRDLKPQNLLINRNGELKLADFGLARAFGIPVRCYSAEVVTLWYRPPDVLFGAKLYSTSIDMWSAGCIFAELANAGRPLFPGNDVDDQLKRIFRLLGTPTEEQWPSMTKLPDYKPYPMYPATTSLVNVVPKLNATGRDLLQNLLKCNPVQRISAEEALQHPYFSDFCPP
T5 sequence (Q15078 99-307 partner limits assumed): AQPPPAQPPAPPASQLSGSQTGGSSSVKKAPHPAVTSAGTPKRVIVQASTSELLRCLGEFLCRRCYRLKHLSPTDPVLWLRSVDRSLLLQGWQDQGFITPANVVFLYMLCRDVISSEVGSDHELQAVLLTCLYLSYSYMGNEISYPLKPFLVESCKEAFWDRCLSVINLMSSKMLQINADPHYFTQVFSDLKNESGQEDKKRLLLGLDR

Hs_CK1ε = biological target: T6, Hs_CK1ε (Homo sapiens, UniProt P49674); experiment: ADP-Glo kinase assay, primary screen; format: biochemical; settings: n=2, read-out: % of residual activity Hs_CK1ε
T6 construct: host or cells: Sf9 insect cells (baculovirus)
T6 sequence (P49674 whole entry): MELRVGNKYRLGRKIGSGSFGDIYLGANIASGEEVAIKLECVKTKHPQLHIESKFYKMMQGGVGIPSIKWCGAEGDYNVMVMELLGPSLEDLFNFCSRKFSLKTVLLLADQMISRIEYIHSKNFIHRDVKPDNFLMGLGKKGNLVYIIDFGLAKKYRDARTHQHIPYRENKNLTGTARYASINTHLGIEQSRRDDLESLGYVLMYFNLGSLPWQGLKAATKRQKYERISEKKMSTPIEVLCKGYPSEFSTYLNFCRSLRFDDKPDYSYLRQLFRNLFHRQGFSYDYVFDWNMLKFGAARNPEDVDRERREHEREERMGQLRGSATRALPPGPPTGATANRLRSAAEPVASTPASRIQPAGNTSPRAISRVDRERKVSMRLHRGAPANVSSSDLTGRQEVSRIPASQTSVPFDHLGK

HsCLK1 = biological target: T7, HsCLK1 (Homo sapiens, UniProt P49759); experiment: ADP-Glo kinase assay; format: biochemical
T7 construct: host or cells: Sf9 insect cells (baculovirus)
T7 sequence (P49759 whole entry): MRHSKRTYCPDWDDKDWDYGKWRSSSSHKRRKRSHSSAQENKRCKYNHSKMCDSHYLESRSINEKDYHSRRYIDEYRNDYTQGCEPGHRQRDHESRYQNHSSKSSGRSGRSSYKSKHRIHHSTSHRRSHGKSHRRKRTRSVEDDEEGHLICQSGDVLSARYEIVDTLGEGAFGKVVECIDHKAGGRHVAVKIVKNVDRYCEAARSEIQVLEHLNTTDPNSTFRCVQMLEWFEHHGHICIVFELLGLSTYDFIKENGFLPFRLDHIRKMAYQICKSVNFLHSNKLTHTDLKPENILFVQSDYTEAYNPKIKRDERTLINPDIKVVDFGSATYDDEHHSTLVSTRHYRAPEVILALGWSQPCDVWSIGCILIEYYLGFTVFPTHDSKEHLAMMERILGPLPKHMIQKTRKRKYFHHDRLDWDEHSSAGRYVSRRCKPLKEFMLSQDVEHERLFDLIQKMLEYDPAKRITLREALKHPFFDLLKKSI

[3] = cytotoxic assay, nuclei count (Hoechst, HCS); format: cell-based; settings: human, 48 h treatment
Protocol: as §1, §2, §3
[…] Cells were plated in 96 wells plates (4000 cells/well). Twenty-four hours after seeding, cells were exposed to chemicals. After 48 h of treatment, cells were washed in PBS and fixed in cooled 90% ethanol/5% acetic acid for 20 min and the nuclei were stained with Hoechst 33342 (B2261 Sigma). Image acquisition and analysis were performed using a CellomicsArrayScan VTI/HCS Reader (ThermoScientific, Waltham, MA, USA). The survival percentages were calculated as the percentage of cell number after compound treatment over cell number after DMSO treatment.

HsDYRK1A = biological target: T8, HsDYRK1A (Homo sapiens, UniProt Q13627); experiment: ADP-Glo kinase assay; format: biochemical; settings: for remaining activity at 1 µM / remaining activity at 10 µM: n=2, read-out: % of residual activity Hs_DYRK1A
T8 construct: host or cells: Sf9 insect cells (baculovirus)

Hs_HASPIN = biological target: T9, Hs_HASPIN (Homo sapiens, UniProt Q8TF76); experiment: ADP-Glo kinase assay, primary screen; format: biochemical; settings: n=2, read-out: % of residual activity Hs_HASPIN
T9 construct: host or cells: bacteria
T9 sequence (Q8TF76 1-798): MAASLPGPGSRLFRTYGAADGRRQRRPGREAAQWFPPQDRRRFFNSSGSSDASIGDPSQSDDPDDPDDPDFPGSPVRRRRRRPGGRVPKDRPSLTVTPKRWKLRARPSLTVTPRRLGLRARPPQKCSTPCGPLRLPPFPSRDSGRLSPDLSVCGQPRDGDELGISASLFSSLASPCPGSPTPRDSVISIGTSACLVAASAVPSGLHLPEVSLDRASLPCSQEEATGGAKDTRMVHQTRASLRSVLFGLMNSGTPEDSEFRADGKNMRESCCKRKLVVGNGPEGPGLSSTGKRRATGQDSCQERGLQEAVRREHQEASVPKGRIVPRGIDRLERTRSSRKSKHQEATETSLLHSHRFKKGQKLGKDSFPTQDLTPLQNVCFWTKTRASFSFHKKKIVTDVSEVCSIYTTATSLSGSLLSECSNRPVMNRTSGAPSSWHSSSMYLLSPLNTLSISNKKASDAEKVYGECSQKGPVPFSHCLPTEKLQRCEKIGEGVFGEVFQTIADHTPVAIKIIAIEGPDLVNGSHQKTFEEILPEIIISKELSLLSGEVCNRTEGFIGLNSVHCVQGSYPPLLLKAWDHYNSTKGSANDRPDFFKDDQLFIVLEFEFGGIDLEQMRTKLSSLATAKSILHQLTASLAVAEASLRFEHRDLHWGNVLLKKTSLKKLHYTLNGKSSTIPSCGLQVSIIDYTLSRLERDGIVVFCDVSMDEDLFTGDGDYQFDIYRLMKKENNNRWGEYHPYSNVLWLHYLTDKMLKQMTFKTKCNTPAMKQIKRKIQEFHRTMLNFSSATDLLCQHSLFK

[4] = cytotoxic assay, nuclei count (Hoechst, HCS); format: cell-based; settings: human, MDA-MB-231 cells (breast carcinoma); 48 h treatment; read-out: Cytotoxic studies IC50 MDA-MB-231
[5] = cytotoxic assay, nuclei count (Hoechst, HCS); format: cell-based, human; settings: human, human skin fibroblasts (non-cancerous reference cells); 48 h treatment; some cells add low/moderate/high amplitude; read-out: Cytotoxic studies IC50 Fibroblasts
Protocol: as §1, §2, §3, §4

Human skin fibroblasts = experiment: cytotoxic assay, nuclei count (Hoechst, HCS); format: cell-based; settings: summary of Table S2
Protocol: as §1, §2, §3, §4

Hs_PIM1 = biological target: T10, Hs_PIM1 (Homo sapiens, UniProt P11309); experiment: ADP-Glo kinase assay, primary screen; format: biochemical; settings: n=2, read-out: % of residual activity Hs_PIM1
T10 construct: host or cells: Sf9 insect cells (baculovirus)
T10 sequence (P11309 whole entry): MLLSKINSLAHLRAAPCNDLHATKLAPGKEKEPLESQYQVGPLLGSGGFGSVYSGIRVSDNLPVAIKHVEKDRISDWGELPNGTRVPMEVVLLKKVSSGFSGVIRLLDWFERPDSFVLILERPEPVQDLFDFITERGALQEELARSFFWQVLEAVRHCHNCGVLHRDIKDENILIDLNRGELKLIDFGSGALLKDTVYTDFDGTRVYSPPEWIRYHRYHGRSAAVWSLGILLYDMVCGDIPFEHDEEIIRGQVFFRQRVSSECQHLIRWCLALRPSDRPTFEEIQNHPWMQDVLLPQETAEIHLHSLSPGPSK

[6] = cytotoxic assay, nuclei count (Hoechst, HCS); format: cell-based; settings: human, Caco-2 cells (colorectal adenocarcinoma); 48 h treatment; read-out: Cytotoxic studies IC50 Caco2
[7] = HCT116 cells (colorectal adenocarcinoma), read-out: Cytotoxic studies IC50 HCT116
[8] = MDA-MB-468 cells (breast carcinoma), read-out: Cytotoxic studies IC50 MDA-MB-468

Compound	IC50 at 48 h [1] [µM]	remaining activity at 1 µM (MmCLK1) [%]	remaining activity at 10 µM (MmCLK1) [%]	pIC50 (MmCLK1)	remaining activity at 1 µM (Hs_CDK9/CyclinT) [%]	remaining activity at 10 µM (Hs_CDK9/CyclinT) [%]	IC50 at 48 h [2] [µM]	remaining activity at 1 µM (Rn_DYRK1A) [%]	remaining activity at 10 µM (Rn_DYRK1A) [%]	remaining activity at 1 µM (Hs_GSK3β) [%]	remaining activity at 10 µM (Hs_GSK3β) [%]	remaining activity at 1 µM (Hs_CDK5/p25) [%]	remaining activity at 10 µM (Hs_CDK5/p25) [%]	remaining activity at 1 µM (Hs_CK1ε) [%]	remaining activity at 10 µM (Hs_CK1ε) [%]	IC50 at 48 h [3, 7] [µM]	IC50 at 48 h [3, 8] [µM]	remaining activity at 1 µM (HsDYRK1A) [%]	remaining activity at 10 µM (HsDYRK1A) [%]	remaining activity at 1 µM (Hs_HASPIN) [%]	other results
Cc1ccc(-n2cc(COc3cccc4cnc(Nc5ccccc5)nc34)nn2)c([N+](=O)[O-])c1 [7a, N-Phenyl-8-((1-(4-methyl-2-nitrophenyl)-1H-1,2,3-triazol-4-yl)methoxy)quinazolin-2-amine]	3	43	30	6.33	55	45	7	56	90	87	70	≥ 100	65	93	89	7	> 25	≥ 100	92	95	pIC50 (HsCLK1; 10 µM ATP, duplicate, read-out: IC50 HsCLK1): 5.96; times less active than DB18 on human CLK1 (HsCLK1; ratio of IC50 1100 and […] nM): 100 times; remaining activity at 10 µM (Hs_HASPIN): 94%; IC50 at 48 h [4]: 9 µM; IC50 at 48 h [5]: > 25 µM; toxicity towards fibroblasts (Human skin fibroblasts): non-toxic; remaining activity at 1 µM (Hs_PIM1): 81%; remaining activity at 10 µM (Hs_PIM1): 60%
O=[N+]([O-])c1cc(O)ccc1-n1cc(COc2cccc3cnc(Nc4cccc(Cl)c4)nc23)nn1 [12c, N-(3-Chlorophenyl)-8-((1-(4-hydroxy-2-nitrophenyl)-1H-1,2,3-triazol-4-yl)methoxy)quinazolin-2-amine]	5	36	20	6.75	58	39	9	81	45	89	60	71	30	94	81	1.3	4	≥ 100	60	83	remaining activity at 10 µM (Hs_HASPIN): 88%; IC50 at 48 h [4]: 19 µM; IC50 at 48 h [6]: 24 µM; IC50 at 48 h [5]: 6 µM; toxicity towards fibroblasts (Human skin fibroblasts): moderate toxicity; remaining activity at 1 µM (Hs_PIM1): 59%; remaining activity at 10 µM (Hs_PIM1): 68%
N[C@H]1CC[C@H](n2cc(COc3cccc4cnc(Nc5cc(Cl)cc(Cl)c5)nc34)nn2)CC1 [19b, 8-((1-((trans)-4-Aminocyclohexyl)-1H-1,2,3-triazol-4-yl)methoxy)-N-(3,5-dichlorophenyl)quinazolin-2-amine hydrochloride]	14	12	7	6.68	91	42	3	92	92	44	15	≥ 100	42	63	20	4	1.3	≥ 100	55	95	pIC50 (HsDYRK1A; 10 µM ATP, duplicate): 5.26; remaining activity at 10 µM (Hs_HASPIN): 90%; IC50 at 48 h [4]: 2 µM; IC50 at 48 h [6]: 3 µM; IC50 at 48 h [5]: 3 µM; remaining activity at 1 µM (Hs_PIM1): 79%; remaining activity at 10 µM (Hs_PIM1): 44%
